From paper PMC9459060 (Journal of Ginseng Research, 2022)
pKd: −log10 of the molar value.

Biological target: T1, SLC5A1 (Homo sapiens, UniProt P13866)
T1 sequence (P13866 1-664): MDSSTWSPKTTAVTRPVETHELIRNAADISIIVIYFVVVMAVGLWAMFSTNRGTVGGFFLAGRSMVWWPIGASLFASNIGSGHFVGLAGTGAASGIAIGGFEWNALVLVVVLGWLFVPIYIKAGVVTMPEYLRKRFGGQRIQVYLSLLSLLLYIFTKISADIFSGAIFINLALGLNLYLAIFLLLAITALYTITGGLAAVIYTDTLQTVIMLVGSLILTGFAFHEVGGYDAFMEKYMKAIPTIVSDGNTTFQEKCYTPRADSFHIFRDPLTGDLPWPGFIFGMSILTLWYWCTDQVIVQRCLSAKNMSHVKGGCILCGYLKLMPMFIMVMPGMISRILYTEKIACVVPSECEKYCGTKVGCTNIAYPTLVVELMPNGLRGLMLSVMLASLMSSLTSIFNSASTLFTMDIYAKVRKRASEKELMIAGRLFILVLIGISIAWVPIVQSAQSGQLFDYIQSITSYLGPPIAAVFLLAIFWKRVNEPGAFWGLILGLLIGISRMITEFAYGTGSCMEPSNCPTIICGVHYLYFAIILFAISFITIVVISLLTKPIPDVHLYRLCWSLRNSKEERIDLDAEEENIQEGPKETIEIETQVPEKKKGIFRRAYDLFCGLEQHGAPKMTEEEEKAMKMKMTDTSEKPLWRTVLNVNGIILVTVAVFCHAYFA
Experiment: SPR
Format: binding

- pKd: 6.17
SMILES: CC(C)=CCC[C@](C)(O[C@@H]1O[C@H](CO)[C@@H](O)[C@H](O)[C@H]1O)[C@H]1CC[C@]2(C)[C@@H]1[C@H](O)C[C@@H]1[C@@]3(C)CC[C@H](O[C@@H]4O[C@H](CO)[C@@H](O)[C@H](O)[C@H]4O[C@@H]4O[C@H](CO)[C@@H](O)[C@H](O)[C@H]4O)C(C)(C)[C@@H]3CC[C@]12C [ginsenoside Rd]
